Experimental data from patent US20030220524A1, “Sulfur containing compounds” (priority 2000, published 2003).
Values joined by “and” are separate entries in the source; they are usually repeats but may differ in a detail not shown here. Equal values may be shown once. Read-outs that look alike come from different tables or passages of the source. Each block holds one compound with its values, some of them ahead of it.

Legend:
Aspergillus flavus [1] = experiment: Antifungal paper disk test, diameter of clear zone; assay type: cell-based; details: for zone of inhibition at 100 µg/disc: 100 μg/disk, read-out: Diameter (mm) of clear Zone A. flavus
Experimental: (§1) Sulfur compounds were tested for antifungal activity against pure cultures of Aspergillus niger and Aspergillus flavus supplied by Ward's Natural Science Ltd (St. Catharines, Ontario, Canada). They were maintained on Sabouraud Dextrose Agar.
(§2) For the test, 6 agar plugs (5 mm diameter) were cut from a 5-8 day old colony and homogenized in distilled, sterilized water (2 ml). A portion of this suspension (0.5 ml) was transferred aseptically to a Petri plate with Sabouraud Dextrose Agar (15 ml) and spread evenly over the entire surface. […] Each test compound was applied to the disks as a solution (50 mg compound/10 ml acetone). Control disks were treated with neat acetone (20 μl). Test plates with fungal homogenates and disks were incubated at 18-20° C. for 2 days. For each test four replicate plates were used. The diameter of the clear zone surrounding the disk was taken as the indicator of antifungal activity.

Aspergillus niger [2] = experiment: Antifungal paper disk test, diameter of clear zone; assay type: cell-based; details: for zone of inhibition at 100 µg/disc: 100 μg/disk, read-out: Diameter (mm) of clear Zone A. niger
Experimental: as §1, §2

[3] = tested on: Aspergillus niger and Aspergillus flavus; experiment: Antifungal activity; assay type: cell-based; details: in words; dose not given
Experimental: as §1
For the test, 6 agar plugs (5 mm diameter) were cut from a 5-8 day old colony and homogenized in distilled, sterilized water (2 ml). A portion of this suspension (0.5 ml) was transferred aseptically to a Petri plate with Sabouraud Dextrose Agar (15 ml) and spread evenly over the entire surface. Each plate was supplied with four evenly spaced paper disks (7 mm, Whatman Number 1 filter paper) containing the test compound (0, 25, 50 and 100 μg respectively). Each test compound was applied to the disks as a solution (50 mg compound/10 ml acetone). Control disks were treated with neat acetone (20 μl). Test plates with fungal homogenates and disks were incubated at 18-20° C. for 2 days. For each test four replicate plates were used. The diameter of the clear zone surrounding the disk was taken as the indicator of antifungal activity.

Aspergillus flavus [4] = experiment: Antifungal paper disk test, diameter of clear zone; assay type: cell-based; details: 0.25 μg/disk; Appl'n Solvent DMSO
Aspergillus niger [5] = experiment: Antifungal paper disk test, diameter of clear zone; assay type: cell-based; details: 0.25 μg/disk; Appl'n Solvent DMSO
[6] = tested on: Normal bone marrow (mononucleated, T-cell depleted); experiment: MTT assay; assay type: cell-based; details: Normal bone marrow, 48 h, read-out: MTT50
Experimental: (§3) All cell lines were assayed as asynchronously growing cells. Leukemic cell lines, OCI-AML-2, OCI-AML-3 (referred to hereafter as AML-2 and AML-3, respectively), NB-4, KK, B1, G2, and W1 were cultured in alpha-minimal essential medium (α-MEM) (Princess Margaret Hospital Media Services) supplemented with 10% fetal bovine serum (FBS) (Sigma, St. Louis, Mo.). Non-transformed, diploid fibroblast lines WI38 and IMR90, were cultured in α-MEM and MEM F-15, respectively supplemented with 10% FBS. Media for IMR90 cells was also supplemented with 1.5 g/L bicarbonate and 1 mM pyruvate. Breast tumour cell lines, MDA-231, SK-BR-3, MCF-7, ZR-751, and melanoma tumour cell lines, WM9, WM983, WM793, 1232, were grown in α-MEM supplemented with 10% fetal bovine serum. Prostate tumour cell lines, DU145 and PC-3, were grown in RPMI 1640 media supplemented with 10% FBS. All cell lines were cultured in the presence of penicillin/streptomycin. Mononucleated cells were isolated from normal bone marrow using Ficoll hypaque and then T-cell depleted. T-cell depletion was performed by incubating the mononucleated bone marrow cells in α-MEM at a concentration of 2×10^7 cells/mL with 10% absor FBS and 10% (v/v) sheep red blood cells for 4 to 16 h. Absor FBS was prepared beforehand by heating FBS at 56° C. for 1 h, incubating with sheep red blood cells at 0.5% (v/v) for 1 h and then filtering the FBS with a […]. The T-cell depleted, mononucleated cells were recovered using Ficoll hypaque and were maintained in α-MEM supplemented with 20% FBS and 10% 5637 ? nditioned media. 5637 conditioned media ? s previously harvested from confluent 5637 cells after a 3 day incubation. Normal bone marrow from bone marrow transplant donor was collected following informed consent according to institutional guidelines.
(§4) Approximately 20 mg of each compound was dissolved in 5 mL of ACS grade acetone (Sigma) using a 5 mL volumetric flask. Stock solutions of the compounds were stored in the dark at −20° C. Compounds were diluted prior to each experiment.
(§5) Adherent cells were seeded at 67×10^3 cells/mL in a 96 well plate (Falcon, Mississauga, Ontario) the day prior to exposure to compound. Suspension cells were seeded at 27×10^4 cells/mL in a 96 well plate the day of exposure to compound. Mononucleated, T-cell depleted normal bone marrow cells were seeded at 67×10^4 cells/mL in a 96 well plate the day of exposure to compound. Compounds and solvent control were added to cells and assayed in triplicate or sextuplet. Following 48 h of incubation at 37° C. with 5% CO2, 40 μL of a 5 mg/mL solution of 3-[4,5-dimethylthiazol-2-yl]-2,5-diphenyltetrazolium bromide (MTT) substrate (Sigma) in Dulbecco's phosphate-buffered saline (D-PBS) was added. After 4 h of incubation at 37° C. with 5% CO2, the resulting violet formazan precipitate was solubilized by the addition of 80 μL of a 0.01 M HCI, 10% sodium dodecyl sulfate (SDS; Sigma) solution overnight at 37° C. with 5% CO2. The plates were then analyzed using the BioRad Benchmark Microplate Reader (BioRad Laboratories, Hercules, Calif.) at 570 nm to determine the optical density of the samples. MTT data was analyzed using Prism 3.0 (GraphPad Software, Inc., San Diego, Calif.) by the Chou-Talalay method. MTT graphs shown are a representative experiment.
(§6) Adherent cells were seeded at 67×10^3 cells/mL in a 96 well plate (Falcon, Mississauga, Ontario) the day prior to exposure to compound. Suspension cells were seeded at 27×10^4 cells/mL in a 96 well plate the day of exposure to compound. Mononucleated, T-cell depleted normal bone marrow cells were seeded at 67×10^4 cells/mL in a 96 well plate the day of exposure to compound. Compounds and solvent control were added to cells and assayed in triplicate or sextuplet. […]

KK leukemic cell line [7] = experiment: MTT assay; assay type: cell-based, human; details: KK, 48 h, read-out: MTT50
Experimental: as §3, §4, §5, §6

G2 leukemic cell line = experiment: MTT assay; assay type: cell-based, human; details: 48 h, read-out: MTT50
Experimental: as §3, §4, §5, §6

NB-4 leukemic cell line = experiment: MTT assay; assay type: cell-based, human; details: NB-4, 48 h, read-out: MTT50
Experimental: as §3, §4, §5, §6

AML-3 leukemic cell line [8] = experiment: MTT assay; assay type: cell-based, human
Experimental: as §3, §4, §5, §6

B1 leukemic cell line = experiment: MTT assay; assay type: cell-based, human; details: B1, 48 h, read-out: MTT50
Experimental: as §3, §4, §5, §6

[9] = tested on: WI38 non-transformed diploid fibroblasts; experiment: MTT assay; assay type: cell-based, human; details: for IC50: WI38 (normal), 48 h, read-out: MTT50
Experimental: as §3, §4, §5, §6

KK leukemic cell line [10] = experiment: Fixed propidium iodide staining, flow cytometry; assay type: cell-based, human; details: dose 129.6 uM (ug/mL), 48 h
Experimental: (§7) Adherent cell lines were plated at 35×10^4 cells/60 cm^2 dish the day before exposure to compound. Suspension cells were seeded at 25×10^4 cells/mL in a 6 well dish (Falcon) the day of exposure to compound. Mononucleated, T-cell depleted normal bone marrow cells were seeded at 50×10^4 cells/mL in a 6 well dish the day of exposure to compound. Cells were exposed to solvent control or approximate MTT50 and MTT30 concentrations of the compound. After 48 h of exposure to the compound, cells were harvested, fixed in 80% ethanol for 1 h on ice and labeled with 50 μg/mL propidium iodide (Sigma). Approximately 10^6 cells were analyzed using a XL-MCL flow cytometer (Coulter Corporation, Miami, Fla.) and a FACScalibar cytometer (Becton Dickinson, San Jose, Calif.). Profiles shown are a representative.
as §7, with “cm2” for “cm^2”, “concentrations.” for “concentrations of the compound.”, “representative. Cell viability counts and Pi staining were performed as previously described (Dimitroulakos, J, Nohynek, D, Backway, K L, Hedley, D W, Yeger, H, Freedman, M H, Minden, M D and Penn, L Z: Increased sensitivity of acute myeloid leukemias to lovastatin-induced apoptosis: A potential therapeutic approach. Blood 93: 1308-18, 1999).” for “representative.”

AML-3 leukemic cell line [11] = experiment: Fixed propidium iodide staining, flow cytometry; assay type: cell-based, human; details: dose 129.6 uM (ug/mL), 48 h
Experimental: as §7
as §7, with “cm2” for “cm^2”, “concentrations.” for “concentrations of the compound.”, “representative. Cell viability counts and Pi staining were performed as previously described (Dimitroulakos, J, Nohynek, D, Backway, K L, Hedley, D W, Yeger, H, Freedman, M H, Minden, M D and Penn, L Z: Increased sensitivity of acute myeloid leukemias to lovastatin-induced apoptosis: A potential therapeutic approach. Blood 93: 1308-18, 1999).” for “representative.”

W1 leukemic cell line = experiment: MTT assay; assay type: cell-based, human; details: 48 h, read-out: MTT50
Experimental: as §3, §4, §5, §6

[12] = tested on: Aspergillus niger and Aspergillus flavus; experiment: Antifungal activity; assay type: cell-based; details: in words; 10 μg/disk
[13] = Homo sapiens, AML3, 48 h, AML-3, read-out: MTT50
[14] = 0.25 μg/disk, Appl'n Solvent Acetone

- melting point: 34.8 to 35.3 °C
Compound: CSSCCCS(C)(=O)=O [CH3SO2CH2CH2CH2SSCH3, 2,3,7-trithiaoctane 7,7-dioxide]
- zone of inhibition at 100 µg/disc (Aspergillus flavus [1]; Aspergillus flavus, acetone): 0 mm
- zone of inhibition at 100 µg/disc (Aspergillus niger [2]; Aspergillus niger, acetone): 0 mm

- IC50 (KK leukemic cell line [7]): 6.6 µM
- IC50 (G2 leukemic cell line): 6.61 µM and 5.8 µM
- IC50 (NB-4 leukemic cell line): 6.36 µM and 7.8 µM
- IC50 (AML-3 leukemic cell line [8]; AML-3, 48 h, read-out: MTT50): 4.6 µM
- IC50 (B1 leukemic cell line): 6.07 µM
Compound: CCCCCSSCS(C)(=O)=O [K]
- IC50 [6]: 22 µM
- IC50 [9]: 19 µM

- IC50 (KK leukemic cell line [7]): 6.3 µM
- IC50 (G2 leukemic cell line): 3.8 µM
- IC50 (AML-3 leukemic cell line [8]; AML-3, 48 h, read-out: MTT50): 7.46 µM
- IC50 (B1 leukemic cell line): 6.34 µM
- IC50 (W1 leukemic cell line): 7.26 µM
Compound: CS(=O)(=O)Sc1ccccc1 [L, Phenyl Methanethiosulfonate]
- Diameter (mm) of clear Zone A. flavus (Aspergillus flavus [1]; 25 μg/disk, acetone): 3.7 mm
- Diameter (mm) of clear Zone A. niger (Aspergillus niger [2]; 25 μg/disk, acetone): 0 mm
- IC50 [6]: 44.2 µM

- IC50 (KK leukemic cell line [7]; Homo sapiens): 96.9 µM
- IC50 (NB-4 leukemic cell line; Homo sapiens): 62.9 µM
- IC50 (AML-3 leukemic cell line [8]; AML-3, 48 h, read-out: MTT50): 44.1 µM
- IC50 (AML-3 leukemic cell line [8]; [13]): 55.8 µM
- IC50 (B1 leukemic cell line; Homo sapiens): 57.4 µM
Compound: COC(=O)CSSCC(=O)OC [O, dimethyl 3,4-dithiaadipate]
- zone of inhibition at 100 µg/disc (Aspergillus flavus [1]; Aspergillus flavus, acetone): 0 mm
- zone of inhibition at 100 µg/disc (Aspergillus niger [2]; Aspergillus niger, acetone): 0 mm
- IC50 ([6]; T-cell): > 100 µM
- IC50 ([9]; Homo sapiens, WI-38, 48 h): 73.9 µM

The next lines start with the compound.

Compound: C[C@@H]1[C@H](O)[C@@H](C)/C=C/C=C/C=C/C=C/C=C/C=C/C=C/[C@H](O[C@@H]2O[C@H](C)[C@@H](O)[C@H](N)[C@@H]2O)C[C@@H]2O[C@](O)(C[C@@H](O)C[C@@H](O)[C@H](O)CC[C@@H](O)C[C@@H](O)CC(=O)O[C@H]1C)C[C@H](O)[C@H]2C(=O)O [Amphotericin B, reference compound]
- Antifungal activity [3]: most potent of the 3 commercial antifungals tested
- Diameter (mm) of clear Zone A. flavus (Aspergillus flavus [4]): 4.1 mm
- Diameter (mm) of clear Zone A. niger (Aspergillus niger [5]): 4.2 mm

Compound: CSCSCSC [J, 2,4,6-trithiaheptane]
- Antifungal activity [3]: do not possess antiproliferative activity on either fungal or mammalian cells
- zone of inhibition at 100 µg/disc (Aspergillus flavus [1]; Aspergillus flavus, acetone): 0 mm
- zone of inhibition at 100 µg/disc (Aspergillus niger [2]; Aspergillus niger, acetone): 0 mm
- % pre-G1 (Fixed PI) (KK leukemic cell line [10]): 2.6%
- % pre-G1 (Fixed PI) (AML-3 leukemic cell line [11]): 0.2%
- IC50 ([6]; T-cell): > 162 µM
- IC50 (KK leukemic cell line [7]; Homo sapiens): > 162 µM
- IC50 (AML-3 leukemic cell line [8]; [13]): > 162 µM
- IC50 ([9]; Homo sapiens, WI-38, 48 h): > 162 µM
- Viability of non-transformed human WI38 fibroblasts following exposure ([9]; in words): not affected

Compound: CCC(=O)OCSSCOC(=O)CC [(C2H5C(O)OCH2S)2, 2,3-dithiabutane-1,4-dipropionate]
- Diameter (mm) of clear Zone A. flavus (Aspergillus flavus [1]; [14]): 6.7 mm
- Diameter (mm) of clear Zone A. niger (Aspergillus niger [2]; [14]): 3.6 mm
- Diameter (mm) of clear Zone A. flavus (Aspergillus flavus [4]): 6.1 mm
- Diameter (mm) of clear Zone A. niger (Aspergillus niger [5]): 8.0 mm

Compound: CSSc1ccccc1[N+](=O)[O-] [o-O2N(C6H4)SSCH3, methyl o-nitrophenyl disulphide]
- Antifungal activity / fungitoxicity [12]: pronounced toxicity
- zone of inhibition at 10 µg/disc (Aspergillus flavus [1]; Aspergillus flavus, 10 μg/disk, acetone): 1.9 mm
- zone of inhibition at 10 µg/disc (Aspergillus niger [2]; Aspergillus niger, 10 μg/disk, acetone): 2.8 mm
